In ChEMBL document CHEMBL3868582, “Discovery, pharmacology, and clinical profile of omadacycline, a novel aminomethylcycline antibiotic” (Bioorg Med Chem, 2016):
≈ marks a conversion by molar mass, not a printed value.

What was measured:
[1] = test system: Haemophilus influenzae; experiment: Antibacterial activity against Haemophilus influenzae; format: functional
[2] = test system: Moraxella catarrhalis; experiment: Antibacterial activity against Moraxella catarrhalis; format: functional
[3] = test system: Escherichia coli; experiment: Antibacterial activity against Escherichia coli; format: functional
[4] = test system: Klebsiella aerogenes; experiment: Antibacterial activity against Enterobacter aerogenes; format: functional
[5] = test system: Enterobacter cloacae; experiment: Antibacterial activity against Enterobacter cloacae; format: functional
[6] = test system: Serratia marcescens; experiment: Antibacterial activity against Serratia marcescens; format: functional
[7] = test system: Salmonella sp.; experiment: Antibacterial activity against Salmonella sp.; format: functional
[8] = test system: Shigella sp.; experiment: Antibacterial activity against Shigella sp.; format: functional
[9] = test system: Stenotrophomonas maltophilia; experiment: Antibacterial activity against Stenotrophomonas maltophilia; format: functional
[10] = test system: Pseudomonas aeruginosa; experiment: Antibacterial activity against Pseudomonas aeruginosa; format: functional
[11] = test system: Proteus sp.; experiment: Antibacterial activity against Proteus sp.; format: functional; conditions: Proteus sp. (in: enterobacteria)
[12] = test system: Providencia sp.; experiment: Antibacterial activity against Providencia sp.; format: functional
[13] = test system: Escherichia coli; experiment: Antibacterial activity against Escherichia coli by microdilution broth assay; format: functional
[14] = test system: Klebsiella pneumoniae; experiment: Antibacterial activity against Klebsiella pneumoniae by microdilution broth assay; format: functional
[15] = test system: Haemophilus influenzae; experiment: Antibacterial activity against Haemophilus influenzae by microdilution broth assay; format: functional
[16] = test system: Clostridioides difficile; experiment: Antibacterial activity against Clostridium difficile by broth microdilution assay; format: functional
[17] = test system: Clostridioides difficile; experiment: Antibacterial activity against Clostridium difficile by agar microdilution assay; format: functional
[18] = test system: Clostridium perfringens; experiment: Antibacterial activity against Clostridium perfringens; format: functional
[19] = test system: Haemophilus influenzae; experiment: […] activity against Haemophilus influenzae assessed as reduction in bacterial load at MIC by time-kill analysis; format: functional
[20] = test system: Clostridioides difficile; experiment: Antibacterial activity against Clostridium difficile infected in hamster model assessed as median survival time; format: functional
[21] = Metabolic stability in human microsomes at 4.8 uM after 30 mins; format: ADME, Microsome; conditions: read-out: Stability
[22] = Metabolic stability in human hepatocytes at 48 uM up to 24 hrs; format: ADME, cell-based, Hepatocyte; conditions: read-out: Stability
[23] = Induction of CYP1A2 mRNA level in human primary hepatocytes at 1 to 100 uM after 24 to 48 hrs relative to control; format: ADME, cell-based, Hepatocyte
[24] = Induction of CYP1A1 mRNA level in human primary hepatocytes at 1 to 100 uM after 24 to 48 hrs relative to control; format: ADME, cell-based, Hepatocyte
[25] = target: Voltage-gated inwardly rectifying potassium channel KCNH2 (Homo sapiens, UniProt Q12809); experiment: Inhibition of human ERG
[26] = test system: Staphylococcus aureus; experiment: Antibacterial activity against Staphylococcus aureus USA300; format: functional
[27] = test system: Staphylococcus aureus; experiment: Antibacterial activity against Staphylococcus aureus USA400; format: functional
[28] = test system: Streptococcus pneumoniae; experiment: Antibacterial activity against Streptococcus pneumoniae PBS1399; format: functional
[29] = test system: Staphylococcus aureus; experiment: Antibacterial activity against Staphylococcus aureus USA300 in mouse thigh wound infection model assessed as reduction in bacterial load administered intravenously as single dose after 2 hrs of infection measured after 24 hrs post treatment; format: functional; conditions: USA300, iv
[30] = test system: Staphylococcus aureus; experiment: Antibacterial activity against Staphylococcus aureus USA400 in mouse thigh wound infection model assessed as reduction in bacterial load administered intravenously as single dose after 2 hrs of infection measured after 24 hrs post treatment; format: functional; conditions: USA400, iv
[31] = test system: Streptococcus pneumoniae; experiment: Antibacterial activity against Streptococcus pneumoniae PBS1399 infected in mouse assessed as protection against bacterial infection by measuring mouse survival administered intravenously as single dose after 2 hrs of infection measured on day 7; format: functional; conditions: PBS1399, iv, read-out: PD50
[32] = test system: Haemophilus influenzae; experiment: Antibacterial activity against Haemophilus influenzae PBS981; format: functional
[33] = test system: Haemophilus influenzae; experiment: Antibacterial activity against Haemophilus influenzae PBS981 infected in CD-1 mouse assessed as reduction in bacterial load in lungs administered intravenously as single dose after 2 hrs of infection measured after 24 hrs post treatment; format: functional; conditions: PBS981, iv
[34] = test system: Bacteroides fragilis; experiment: Antibacterial activity against Bacteroides fragilis; format: functional
[35] = Induction of CYP1B1 mRNA level in human primary hepatocytes at 1 to 100 uM after 24 to 48 hrs relative to control; format: ADME, cell-based, Hepatocyte
[36] = Induction of CYP2A6 mRNA level in human primary hepatocytes at 1 to 100 uM after 24 to 48 hrs relative to control; format: ADME, cell-based, Hepatocyte
[37] = Induction of CYP2B6 mRNA level in human primary hepatocytes at 1 to 100 uM after 24 to 48 hrs relative to control; format: ADME, cell-based, Hepatocyte
[38] = Induction of CYP2C8 mRNA level in human primary hepatocytes at 1 to 100 uM after 24 to 48 hrs relative to control; format: ADME, cell-based, Hepatocyte
[39] = Induction of CYP2C9 mRNA level in human primary hepatocytes at 1 to 100 uM after 24 to 48 hrs relative to control; format: ADME, cell-based, Hepatocyte
[40] = Induction of CYP2C19 mRNA level in human primary hepatocytes at 1 to 100 uM after 24 to 48 hrs relative to control; format: ADME, cell-based, Hepatocyte
[41] = Induction of CYP2D6 mRNA level in human primary hepatocytes at 1 to 100 uM after 24 to 48 hrs relative to control; format: ADME, cell-based, Hepatocyte
[42] = Induction of CYP2E1 mRNA level in human primary hepatocytes at 1 to 100 uM after 24 to 48 hrs relative to control; format: ADME, cell-based, Hepatocyte
[43] = Induction of CYP2J2 mRNA level in human primary hepatocytes at 1 to 100 uM after 24 to 48 hrs relative to control; format: ADME, cell-based, Hepatocyte
[44] = Induction of CYP3A4/5 mRNA level in human primary hepatocytes at 1 to 100 uM after 24 to 48 hrs relative to control; format: ADME, cell-based, Hepatocyte

Sequence of Voltage-gated inwardly rectifying potassium channel KCNH2 (Q12809 whole entry): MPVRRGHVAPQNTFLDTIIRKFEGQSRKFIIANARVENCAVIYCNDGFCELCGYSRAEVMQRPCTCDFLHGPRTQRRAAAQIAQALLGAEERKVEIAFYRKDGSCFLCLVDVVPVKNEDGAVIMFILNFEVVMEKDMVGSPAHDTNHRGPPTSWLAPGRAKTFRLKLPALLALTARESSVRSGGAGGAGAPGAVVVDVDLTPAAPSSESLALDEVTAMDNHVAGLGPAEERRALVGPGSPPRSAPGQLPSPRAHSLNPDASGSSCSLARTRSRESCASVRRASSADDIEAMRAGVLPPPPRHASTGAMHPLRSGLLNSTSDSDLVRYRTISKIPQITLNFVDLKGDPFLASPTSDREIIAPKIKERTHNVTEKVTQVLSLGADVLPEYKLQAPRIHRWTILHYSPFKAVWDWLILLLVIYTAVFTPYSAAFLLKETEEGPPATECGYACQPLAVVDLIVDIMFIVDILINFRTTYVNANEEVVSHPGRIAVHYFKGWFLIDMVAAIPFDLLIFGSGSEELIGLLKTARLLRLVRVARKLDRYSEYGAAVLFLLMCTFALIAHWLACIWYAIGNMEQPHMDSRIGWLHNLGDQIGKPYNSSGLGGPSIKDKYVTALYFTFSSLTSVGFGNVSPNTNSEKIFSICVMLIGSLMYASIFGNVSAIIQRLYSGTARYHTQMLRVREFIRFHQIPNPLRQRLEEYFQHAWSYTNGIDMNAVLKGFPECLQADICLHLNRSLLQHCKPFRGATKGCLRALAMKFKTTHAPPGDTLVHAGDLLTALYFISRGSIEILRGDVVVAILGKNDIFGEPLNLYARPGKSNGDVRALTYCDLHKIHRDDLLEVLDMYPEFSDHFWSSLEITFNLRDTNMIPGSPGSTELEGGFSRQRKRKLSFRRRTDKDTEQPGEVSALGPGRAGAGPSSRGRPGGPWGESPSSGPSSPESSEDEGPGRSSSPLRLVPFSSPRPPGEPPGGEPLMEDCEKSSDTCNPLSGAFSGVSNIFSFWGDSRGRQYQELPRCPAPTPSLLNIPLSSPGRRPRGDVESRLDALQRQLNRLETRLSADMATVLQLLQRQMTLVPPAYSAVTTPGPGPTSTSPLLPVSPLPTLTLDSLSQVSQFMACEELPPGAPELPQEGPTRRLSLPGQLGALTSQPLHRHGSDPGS

Q: With CN(C)c1cc(CNCC(C)(C)C)c(O)c2c1C[C@H]1C[C@H]3[C@H](N(C)C)C(O)=C(C(N)=O)C(=O)[C@@]3(O)C(O)=C1C2=O [OMADACYCLINE] as the molecule, how does the MIC90 [1] read?
A: 2 µg/mL (≈ 3.59 µM)

Q: What about the MIC90 [2] of the same molecule?
A: 0.25 µg/mL (≈ 0.449 µM)

Q: And the MIC90 [3]?
A: < 4 µg/mL

Q: And the MIC90 [4]?
A: < 4 µg/mL

Q: What about the MIC90 [5] of the same molecule?
A: < 4 µg/mL

Q: What about the MIC90 [6] of the same molecule?
A: < 4 µg/mL

Q: And the MIC90 [7]?
A: < 4 µg/mL

Q: What about the MIC90 [8] of the same molecule?
A: < 4 µg/mL

Q: What about the MIC90 [9] of the same molecule?
A: < 4 µg/mL

Q: And the MIC90 [10]?
A: > 16 µg/mL

Q: And the MIC90 [11]?
A: > 16 µg/mL

Q: What about the MIC90 [12] of the same molecule?
A: > 16 µg/mL

Q: And the MIC90 [13]?
A: 2 to 4 µg/mL (≈ 3.59 to 7.19 µM)

Q: What about the MIC90 [14] of the same molecule?
A: 2 to 4 µg/mL (≈ 3.59 to 7.19 µM)

Q: And the MIC90 [15]?
A: 2 to 4 µg/mL (≈ 3.59 to 7.19 µM)

Q: And the MIC90 [16]?
A: 0.06 µg/mL (≈ 0.108 µM)

Q: And the MIC90 [17]?
A: 0.12 µg/mL (≈ 0.216 µM)

Q: What about the MIC90 [18] of the same molecule?
A: 0.12 to 4 µg/mL (≈ 0.216 to 7.19 µM)

Q: And the Activity [19]?
A: >=3 log10CFU

Q: What about the MST [20] of the same molecule?
A: 12 days

Q: And the remaining at 0.5 h, 4.8 µM [21]?
A: > 90%

Q: What about the remaining at 24 h, 48 µM [22] of the same molecule?
A: > 86%

Q: What about the Activity [23] of the same molecule?
A: < 40%

Q: What about the Activity [24] of the same molecule?
A: < 40%

Q: And the IC25 [25]?
A: 166 µg/mL (≈ 298 µM)

Q: And the MIC [26]?
A: 0.25 µg/mL (≈ 0.449 µM)

Q: What about the MIC [27] of the same molecule?
A: 0.5 µg/mL (≈ 0.898 µM)

Q: And the MIC [28]?
A: 0.125 µg/mL (≈ 0.225 µM)

Q: And the ED50 [29]?
A: 0.4 mg/kg

Q: And the ED50 [30]?
A: 0.68 mg/kg

Q: What about the ED50 [31] of the same molecule?
A: 1.5 mg/kg

Q: What about the MIC [32] of the same molecule?
A: 1 µg/mL (≈ 1.8 µM)

Q: And the ED50 [33]?
A: 6.47 mg/kg

Q: What about the MIC90 [34] of the same molecule?
A: 0.12 to 4 µg/mL (≈ 0.216 to 7.19 µM)

Q: And the Activity [35]?
A: < 40%

Q: What about the Activity [36] of the same molecule?
A: < 40%

Q: And the Activity [37]?
A: < 40%

Q: What about the Activity [38] of the same molecule?
A: < 40%

Q: And the Activity [39]?
A: < 40%

Q: What about the Activity [40] of the same molecule?
A: < 40%

Q: And the Activity [41]?
A: < 40%

Q: And the Activity [42]?
A: < 40%

Q: What about the Activity [43] of the same molecule?
A: < 40%

Q: What about the Activity [44] of the same molecule?
A: < 40%
